Assay results as given in patent publication US20120100109A1, “Method for increasing the replication of oncolytic HSVs in highly resistant tumor cells using mTOR pathway and PI3K inhibitors” (priority 2010, published 2012).

What was measured:
[1] = test system: highly resistant tumor cells (EC9706, MCF-7 and Hela cells); assay: Spread and replication of Baco-1 (GFP) in highly resistant tumor cell monolayers (FIG. 3B, 3C); type: cell-based; details: infected cells incubated with inhibitor
Excerpt: Because Baco-1 contains the Green Fluorescent Protein (GFP) gene, it is possible to visualize GFP expression during virus infection and thus monitor the spread of virus among tumor cells.
The effect of PI3K inhibitor, LY294002, on the replication of Baco-1 is examined in these cells. The three highly resistant tumor cell lines are infected with Baco-1, with or without the presence of LY294002 in the medium.
In the same experiment, three highly resistant tumor cells (EC9706, MCF-7 and Hela cells) are infected with Baco-1 at 0.01 pfu/cell and incubated without or with rapamycin at a concentration of 100 nM, or LY294002 at 50 μM concentration.

EC9706 cells [2] = assay: Yield of other HSVs (17+, FusOn-H2, ApE-Mir-3) in EC9706 cells with or without rapamycin (FIG. 4); type: cell-based, human; details: EC9706, 0.1 pfu/cell, rapamycin 100 nM
Excerpt: In another preferred embodiment of the present invention the potentiating effect of rapamycin on virus replication in highly resistant tumor cells is applied to other oncolytic HSVs, including strain 17 (17^+), a wild-type HSV-1, FusOn-H2, which is constructed from an HSV-2 by mutating the N-terminal region of the ICP 10 gene (Fu, et al., A Mutant Type 2 Herpes Simplex Virus Deleted for the Protein Kinase Domain of the ICP10 Gene Is a Potent Oncolytic Virus, Mol. Ther. 2006; 13:882-90), and ApE-Mir-3, an HSV-1-based oncolytic virus in which the glycoprotein H (gH) gene is controlled by tissue-specific microRNAs (miRNAs), including let-7 and mir-122. To that end, EC9706 cells are infected with these viruses at 0.1 pfu/cell for 1 h and then cultured the cells in media with or without rapamycin at a concentration of 100 nM. […] Replication of the HSV-2-based oncolytic virus, FusOn-H2, is increased by approximately 5-fold, similar to those seen with Baco-1.
EC9706 cells were infected with three other types of oncolytic HSVs, including FusOn-H2 (an oncolytic HSV derived from HSV-2, while Baco-1 was derived from HSV-1) and Ape-Mir3 (an oncolytic HSV specifically targets to hepatocellular carcinoma), at 0.1 pfu/cell and then incubated with medium without or with rapamycin (100 nM) for 72 h before harvesting for virus titration.

PANC-1 = assay: Baco-1 virus yield with or without rapamycin, PANC-1 cells; type: cell-based; details: PANC-1 (pancreas); Baco-1 yield, well with rapamycin / well without
HuH-7 = assay: Baco-1 virus yield with or without rapamycin, HuH-7 cells; type: cell-based; details: HuH-7 (liver); Baco-1 yield, well with rapamycin / well without
Hep3B = assay: Baco-1 virus yield with or without rapamycin, Hep3B cells; type: cell-based; details: Hep3B (liver); Baco-1 yield, well with rapamycin / well without
MPanc-96 = assay: Baco-1 virus yield with or without rapamycin, MPanc-96 cells; type: cell-based; details: MPanc-96 (pancreas); Baco-1 yield, well with rapamycin / well without
293T = assay: Baco-1 virus yield with or without rapamycin, 293T cells; type: cell-based; details: 293T (kidney); Baco-1 yield, well with rapamycin / well without
[3] = test system: resistant tumor cells (EC9706, MCF-7, HeLa); assay: Baco-1 virus yield in resistant tumor cells with or without rapamycin (FIG. 2B, 2C); type: cell-based
Procedure: FIG. 2. […] Virus yield, as determined by plaque assay. Values represent the mean±SD of triplicate experiments.
(§1) A. EC9706 cells were either preincubated with rapamycin overnight (Pre-Inf) or incubated with the drug during the virus infection (During-Inf). They were then infected with Baco-1 at 0.1 pfu/cell and for 72 h. Fold increase in virus yield was calculated by dividing […]. […] B. MCF-7 and HeLa cells were infected with Baco-1 at 0.01 pfu/cell for 1 h. Then the cells were cultured in medium without (control) or with rapamycin at a concentration of 100 nM for 72 h before harvesting for virus titration.

HeLa = assay: Baco-1 virus yield with or without rapamycin, HeLa cells; type: cell-based; details: HeLa (cervix); Baco-1 yield, well with rapamycin / well without
Procedure: as §1

MCF-7 = assay: Baco-1 virus yield with or without rapamycin, MCF-7 cells; type: cell-based, human; details: MCF-7 (breast); Baco-1 yield, well with rapamycin / well without
Procedure: as §1

DLD-1 = assay: Baco-1 virus yield with or without rapamycin, DLD-1 cells; type: cell-based; details: DLD-1 (colon); Baco-1 yield, well with rapamycin / well without
HCT116 = assay: Baco-1 virus yield with or without rapamycin, HCT116 cells; type: cell-based; details: HCT116 (colon); Baco-1 yield, well with rapamycin / well without
HepG2 = assay: Baco-1 virus yield with or without rapamycin, HepG2 cells; type: cell-based; details: HepG2 (liver); Baco-1 yield, well with rapamycin / well without
MDA-MB-231 = assay: Baco-1 virus yield with or without rapamycin, MDA-MB-231 cells; type: cell-based; details: MDA-MB-231 (breast); Baco-1 yield, well with rapamycin / well without
MDA-MB-435 = assay: Baco-1 virus yield with or without rapamycin, MDA-MB-435 cells; type: cell-based; details: MDA-MB-435 (breast); Baco-1 yield, well with rapamycin / well without
A549 = assay: Baco-1 virus yield with or without rapamycin, A549 cells; type: cell-based; details: A549 (lung); Baco-1 yield, well with rapamycin / well without
EC9706 cells [4] = assay: Baco-1 virus yield (plaque assay) with or without drug, EC9706 cells; type: cell-based, human
Procedure: as §1

SW480 = assay: Baco-1 virus yield with or without rapamycin, SW480 cells; type: cell-based; details: SW480 (colon); Baco-1 yield, well with rapamycin / well without

## CC[n+]1c(/C=C/N(C)c2ccccc2)n(-c2ccccc2)c2ccc(-c3nc4ccccc4s3)cc21.[I-] [Akt Inhibitor IV]
[1]
  Effect on Baco-1 replication: does not result in any significant increase in Baco-1 replication

## CO[C@H]1C[C@@H]2CC[C@@H](C)[C@@](O)(O2)C(=O)C(=O)N2CCCC[C@H]2C(=O)O[C@H]([C@H](C)C[C@@H]2CC[C@@H](O)[C@H](OC)C2)CC(=O)[C@H](C)/C=C(\C)[C@@H](O)[C@@H](OC)C(=O)[C@H](C)C[C@H](C)/C=C/C=C/C=C/1C [rapamycin]
EC9706 cells [2]
  Increase in replication of ApE-Mir-3: 2.5 fold
  Increase in replication of FusOn-H2: approximately 5 fold
  Increase in virus yield of strain 17+ (wild-type HSV-1): more than 10 fold
EC9706 cells [2]; 72 h
  Increase in yield of other oncolytic HSVs (pooled statement): 3-10 folds
PANC-1
  Fold of change in virus yield: 0.99
HuH-7
  Fold of change in virus yield: 0.8
Hep3B
  Fold of change in virus yield: 1.10
MPanc-96
  Fold of change in virus yield: 0.55
293T
  Fold of change in virus yield: 8.01
[3]; MCF-7 and HeLa cells, Baco-1 0.01 pfu/cell, rapamycin 100 nM, 72 h, FIG. 2B
  Fold increase in virus yield: 3-5 fold
[3]; resistant tumor cells, Baco-1, FIG. 2C
  Virus yield in the presence of rapamycin: ~5×10^6 pfu
HeLa
  Fold of change in virus yield: 3.0
MCF-7
  Fold of change in virus yield: 4.86
DLD-1
  Fold of change in virus yield: 1.02
HCT116
  Fold of change in virus yield: 0.5
HepG2
  Fold of change in virus yield: 1.04
MDA-MB-231
  Fold of change in virus yield: 0.87
MDA-MB-435
  Fold of change in virus yield: 0.6
A549
  Fold of change in virus yield: 0.42
EC9706 cells [4]; EC9706 (esophagus), Baco-1 yield, well with rapamycin / well without
  Fold of change in virus yield: 5.98
EC9706 cells [4]; EC9706 cells, Baco-1 0.1 pfu/cell, 72 h, drug in the medium, FIG. 2A
  Fold increase in virus yield: ~6 fold
SW480
  Fold of change in virus yield: 5.31
